Laboratory results from paper PMC10178506, “Chemical and Biological Evaluation of Novel 1H-Chromeno[3,2-c]pyridine Derivatives as MAO Inhibitors Endowed with Potential Anticancer Activity” (International Journal of Molecular Sciences, 2023).
Where two headings read alike, the source gives them in different places.

Tests used:
[1] = tested on: MCF-7, human breast carcinoma cell; assay: Antiproliferative activity, sulforhodamine-B (SRB) assay, MCF-7; type: cell-based; conditions: read-out: Antiproliferative activity IC50, MCF-7
Experimental: (§1) The SK-OV-3 ovarian cancer cell line, MCF-7 breast cancer line and HCT-116 colon cancer cell line were obtained from the National Cancer Institute, Biological Testing Branch (Frederick, MD, USA), and maintained in the logarithmic phase at 37 °C in a 5% CO2 humidified air in RPMI 1640 medium supplemented with 10% fetal calf serum, 2 mM glutamine, penicillin (100 U/mL) and streptomycin (0.1 mg/mL).
(§2) The growth inhibitory effects of compounds under investigation were compared to those of cisplatin (CDDP) and doxorubicin (DXR), used as positive controls, and evaluated by using the sulforhodamine-B (SRB) assay. Briefly, cells were seeded into 96-well microtiter plates in 100 µL of the appropriate culture medium at plating densities at 2500, 5000 and 8000 cells/well for MCF-7, HCT-116 and SKOV-3, respectively, depending upon the doubling time of individual cell lines. After seeding, microtiter plates were incubated at 37 °C for 24 h before adding the test compounds. After 24 h, several samples of each cell line were fixed in situ with cold trichloroacetic acid (TCA) to represent a measurement of the cell population at the time of compound addition. The test compounds were freshly dissolved in dimethyl sulfoxide (DMSO, 10^−2 M) and gradually diluted to different concentrations (0.79–50 µM) with a complete medium, so that the maximum DMSO/well ratio was 0.5% v/v. After the addition of different compound concentrations to triplicate wells, the plates were further incubated at 37 °C for 72 h. Cells were fixed in situ by the gentle addition of 50 µL of cold 50% w/v TCA (final concentration 10%) and incubated for 1 h at 4 °C. The supernatant was discarded, and the plates were washed with tap water and air-dried. SRB solution (100 µL) at 0.4% (w/v) in 1% acetic acid was added to each well, and the plates were incubated for 30 min at room temperature. After staining, the unbound dye was removed by washing with 1% acetic acid and the plates were air-dried. The bound stain was then solubilized with 10mM Trizma base and the absorbance was read on an automatic plate reader at 570 nm.

[2] = tested on: SK-OV-3, human ovarian carcinoma with intrinsic resistance to cisplatin; assay: Antiproliferative activity, sulforhodamine-B (SRB) assay, SK-OV-3; type: cell-based; conditions: read-out: Antiproliferative activity IC50, SK-OV-3
Experimental: as §1, §2

[3] = tested on: HCT116, colon cancer cell line; assay: Antiproliferative activity, sulforhodamine-B (SRB) assay, HCT116; type: cell-based, human; conditions: 72 h exposure, SRB assay, mean ± S.D., >50 = less than 50% growth inhibition at 50 μM, read-out: Antiproliferative activity IC50, HCT116
Experimental: as §1, §2

human recombinant AChE = target: T1, human recombinant AChE (Homo sapiens, UniProt P22303); assay: biochemical; conditions: for inhibition at 10 µM: read-out: hAChE % inhibition at 10 μM
T1 construct: purchased Sigma Aldrich (Milan, Italy)
Experimental: (§3) Human isoforms of MAOs (from baculovirus-infected insect cells) and ChEs (human recombinant AChE and BChE from human serum), purchased from Sigma Aldrich (Milan, Italy), were used for inhibition assays. Experiments were performed in 96-well plates (Greiner Bio-One, Kremsmünster, Austria) on the Infinite M1000 Pro plate reader (Tecan, Cernusco s.N., Italy), using already published protocols.
(§4) The inhibition of human recombinant AChE or BChE from human serum was determined by applying Ellman’s spectrophotometric method as described in previously reported protocols. The AChE activity was determined in an assay solution containing AChE (0.09 U/mL), 5,5′-dithiobis(2-nitrobenzoic acid) (i.e., the Ellman’s reagent, 0.33 mM), the test compound (10 μM concentration, or seven scalar concentrations for compounds achieving > 60% enzyme inhibition at 10 μM), in 0.1 M PBS pH 8.0. […] The BChE inhibitory activity was similarly determined by using BChE (0.09 U/mL) and butyrylthiocholine iodide (5 μM) as the substrate.
(§5) The IC50 values, Michaelis–Menten curve fitting and inhibition constant (Ki) were calculated by nonlinear regression, using Prism software.

BChE from human serum = target: T2, BChE from human serum (Homo sapiens, UniProt P06276); assay: biochemical; conditions: for inhibition at 10 µM: read-out: hBChE % inhibition at 10 μM; for inhibition at 10 µM / hBChE % inhibition at 10 μM: 10 μM concentration, mean ± S.D. (n = 3), n.i. = no inhibition at 10 μM
T2 construct: ChEs (human recombinant AChE and BChE from human serum), purchased from Sigma Aldrich (Milan, Italy); purchased Sigma Aldrich (Milan, Italy); host or cells: human serum (natural source)
Experimental: as §3, §4, §5

human recombinant MAO A = target: T3, human recombinant MAO A (Homo sapiens, UniProt P21397); assay: biochemical; type: biochemical; conditions: for inhibition at 10 µM: read-out: hMAO-A % inhibition at 10 μM
T3 construct: purchased Sigma Aldrich (Milan, Italy); host or cells: baculovirus-infected insect cells
T3 sequence (P21397 1-527): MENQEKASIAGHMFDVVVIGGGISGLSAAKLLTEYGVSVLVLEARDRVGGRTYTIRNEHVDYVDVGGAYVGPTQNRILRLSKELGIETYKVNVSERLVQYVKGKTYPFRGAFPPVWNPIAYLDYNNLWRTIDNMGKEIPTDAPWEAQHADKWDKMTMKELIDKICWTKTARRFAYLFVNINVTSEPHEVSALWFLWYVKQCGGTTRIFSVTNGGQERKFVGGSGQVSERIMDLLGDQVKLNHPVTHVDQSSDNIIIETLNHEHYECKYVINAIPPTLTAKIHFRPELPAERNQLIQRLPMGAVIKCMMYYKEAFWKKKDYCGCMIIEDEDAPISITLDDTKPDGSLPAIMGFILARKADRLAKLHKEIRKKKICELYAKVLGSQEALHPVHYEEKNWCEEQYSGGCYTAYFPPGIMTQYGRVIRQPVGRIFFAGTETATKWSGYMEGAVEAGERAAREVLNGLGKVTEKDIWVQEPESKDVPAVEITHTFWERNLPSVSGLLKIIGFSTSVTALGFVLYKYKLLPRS
Experimental: as §3
After the addition of human recombinant MAO A (250 U/mg) or MAO B (59 U/mg) and a further 30 min of incubation, NaOH was added, and the fluorescence read at 310/400 nm excitation/emission wavelength. […] IC50 is expressed as mean ± SD of three independent measurements, each one performed in duplicate. For the kinetic study on the inhibition mechanism of MAO B, three diverse scalar concentrations of the inhibitor and seven concentrations of kynuramine were used.
as §5

human recombinant MAO B = target: T4, human recombinant MAO B (Homo sapiens, UniProt P27338); assay: biochemical; type: biochemical; conditions: for inhibition at 10 µM: read-out: hMAO-B % inhibition at 10 μM
T4 construct: purchased Sigma Aldrich (Milan, Italy); host or cells: baculovirus-infected insect cells
T4 sequence (P27338 1-520): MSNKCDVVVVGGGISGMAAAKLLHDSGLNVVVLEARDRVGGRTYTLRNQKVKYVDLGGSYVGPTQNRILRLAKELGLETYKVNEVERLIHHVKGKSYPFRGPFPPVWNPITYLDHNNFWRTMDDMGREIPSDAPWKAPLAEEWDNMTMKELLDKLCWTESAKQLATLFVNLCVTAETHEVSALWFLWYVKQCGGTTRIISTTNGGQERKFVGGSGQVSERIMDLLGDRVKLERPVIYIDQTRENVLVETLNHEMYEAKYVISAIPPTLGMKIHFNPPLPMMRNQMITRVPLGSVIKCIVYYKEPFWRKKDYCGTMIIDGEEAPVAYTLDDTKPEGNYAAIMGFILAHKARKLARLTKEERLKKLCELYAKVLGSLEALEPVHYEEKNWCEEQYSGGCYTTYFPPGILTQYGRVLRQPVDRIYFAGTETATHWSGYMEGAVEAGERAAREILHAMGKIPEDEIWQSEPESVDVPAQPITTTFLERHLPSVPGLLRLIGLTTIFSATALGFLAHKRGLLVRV

[4] = 72 h exposure, SRB assay, mean ± S.D., >50 = less than 50% growth inhibition at 50 μM

T1 sequence (P22303 32-614): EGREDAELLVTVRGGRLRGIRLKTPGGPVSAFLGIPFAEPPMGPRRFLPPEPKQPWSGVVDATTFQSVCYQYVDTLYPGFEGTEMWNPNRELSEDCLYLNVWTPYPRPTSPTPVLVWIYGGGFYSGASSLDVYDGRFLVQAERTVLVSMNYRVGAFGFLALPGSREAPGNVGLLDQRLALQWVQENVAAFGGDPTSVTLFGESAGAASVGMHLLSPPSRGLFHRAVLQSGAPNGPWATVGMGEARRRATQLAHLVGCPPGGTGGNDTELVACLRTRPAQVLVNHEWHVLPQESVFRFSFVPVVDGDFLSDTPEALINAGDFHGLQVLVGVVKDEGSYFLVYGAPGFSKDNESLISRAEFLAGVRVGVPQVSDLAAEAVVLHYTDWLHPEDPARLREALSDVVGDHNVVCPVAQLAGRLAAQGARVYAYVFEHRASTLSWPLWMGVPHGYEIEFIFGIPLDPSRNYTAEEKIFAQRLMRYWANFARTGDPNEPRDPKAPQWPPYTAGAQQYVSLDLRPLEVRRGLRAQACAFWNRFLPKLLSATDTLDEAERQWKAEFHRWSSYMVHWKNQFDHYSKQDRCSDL
T2 sequence (P06276 29-602): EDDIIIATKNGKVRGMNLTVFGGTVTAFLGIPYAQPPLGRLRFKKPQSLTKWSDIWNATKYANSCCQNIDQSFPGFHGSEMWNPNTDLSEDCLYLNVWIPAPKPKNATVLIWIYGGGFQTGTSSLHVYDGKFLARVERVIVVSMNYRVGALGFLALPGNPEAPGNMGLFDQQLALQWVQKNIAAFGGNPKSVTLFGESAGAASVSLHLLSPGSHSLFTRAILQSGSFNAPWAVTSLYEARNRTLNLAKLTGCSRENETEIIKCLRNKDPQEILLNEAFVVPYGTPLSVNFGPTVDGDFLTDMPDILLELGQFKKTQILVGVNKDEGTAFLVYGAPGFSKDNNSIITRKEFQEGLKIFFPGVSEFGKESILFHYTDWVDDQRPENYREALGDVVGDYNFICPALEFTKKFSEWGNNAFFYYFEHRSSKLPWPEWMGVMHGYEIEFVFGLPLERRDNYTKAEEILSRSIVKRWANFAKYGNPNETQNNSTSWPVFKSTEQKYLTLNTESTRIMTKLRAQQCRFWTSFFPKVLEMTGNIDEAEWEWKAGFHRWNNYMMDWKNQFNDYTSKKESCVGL

Compound	inhibition at 10 µM (human recombinant MAO A) [%]	inhibition at 10 µM (human recombinant MAO B) [%]	inhibition at 10 µM (human recombinant AChE) [%]	hBChE % inhibition at 10 μM (BChE from human serum)	also measured
COc1cccc2c1C(=O)c1c(O)c3c(c(O)c1C2=O)C[C@@](O)(C(=O)CO)C[C@@H]3O[C@H]1C[C@H](N)[C@H](O)[C@H](C)O1 [Doxorubicin, doxorubicin, reference compound]	–	–	–	–	IC50 ([1]; Homo sapiens, MCF7, 72 h exposure, SRB assay, mean ± S.D., >50 = less than 50% growth inhibition at 50 μM): 0.18 ± 0.02 µM; IC50 ([2]; Homo sapiens, SK-OV-3, 72 h, 72 h exposure, SRB assay, mean ± S.D., >50 = less than 50% growth inhibition at 50 μM): 2.2 ± 0.02 µM; IC50 ([3]; Homo sapiens, HCT-116): 0.38 ± 0.03 µM
CN1CC[C@@]2(O)Oc3ccc(Br)cc3[C@@H](O)[C@H]2C1 (relative stereo) [7c, (4aR*,10S*,10aR*)-8-Bromo-2-methyl-1,2,3,4,10,10a-hexahydro-4aH-chromeno[3,2-c]pyridine-4a,10-diol]	21	35	–	–	hAChE % inhibition at 10 μM (human recombinant AChE): n.i.; inhibition at 10 µM (BChE from human serum): 12%
N.N.[Cl][Pt][Cl] [Cisplatin, reference compound]	–	–	–	–	IC50 [1, 4]: 4.8 ± 2.2 µM; IC50 [2, 4]: 4.43 ± 0.32 µM; IC50 [3]: 5.02 ± 2.12 µM
CN1CC=C2Oc3ccc(Cl)cc3C=C2C1 [2a, 8-Chloro-2,3-dihydro-2-methyl-1H-chromeno[3,2-c]pyridine]	–	45	25	n.i.	IC50 ([1]; Homo sapiens, MCF7, 72 h): 48.1 ± 4.21 µM; IC50 ([2]; Homo sapiens, SK-OV-3, 72 h): > 50 µM; IC50 (human recombinant MAO A): 1.18 ± 0.07 µM; Selectivity for MAO A over MAO B (human recombinant MAO A; from MAO A and MAO B inhibition data): about tenfold
CN1CC[C@@]2(O)Oc3ccccc3[C@@H](O)[C@H]2C1 (relative stereo) [7a, (4aR*,10S*,10aR*)-2-Methyl-1,2,3,4,10,10a-hexahydro-4aH-chromeno[3,2-c]pyridine-4a,10-diol]	14	22	24	n.i.	–
CN1CCc2oc3ccccc3c(=O)c2C1 [1a, 1,2,3,4-tetrahydro-2-methylchromeno[3,2-c]pyridin-10-one]	15	29	34	n.i.	–
CN1CC[C@@]2(O)Oc3ccc(Br)cc3[C@@H](O)[C@@H]2C1 (relative stereo) [8c, (4aR*,10S*,10aS*)-8-Bromo-2-methyl-1,2,3,4,10,10a-hexahydro-4aH-chromeno[3,2-c]pyridine-4a,10-diol]	14	15	45	n.i.	–
CCOc1cccc2c1O[C@]1(O)CCN(C)C[C@@H]1[C@@H]2O (relative stereo) [7e, (4aR*,10S*,10aR*)-6-Ethoxy-2-methyl-1,2,3,4,10,10a-hexahydro-4aH-chromeno[3,2-c]pyridine-4a,10-diol]	19	25	–	n.i.	hAChE % inhibition at 10 μM (human recombinant AChE): n.i.
CN1C=Cc2oc3ccccc3c(=O)c2C1C#Cc1ccccc1 (centres unmarked) [3a, 2-Methyl-1-(phenylethinyl)-1H-chromeno[3,2-c]pyridine-10(2H)-one]	35	–	–	–	IC50 (human recombinant AChE; mean ± S.D., determined for compounds with more than 60% inhibition at 10 μM, read-out: hAChE IC50): 6.79 ± 0.42 µM; IC50 (BChE from human serum; mean ± S.D., determined for compounds with more than 60% inhibition at 10 μM, read-out: hBChE IC50): 8.42 ± 0.25 µM; MAO B/A selectivity (human recombinant MAO B; from MAO B and MAO A inhibition data): more than twentyfold; IC50 (human recombinant MAO B; hMAO-B IC50, mean ± S.D., determined for compounds with more than 60% inhibition at 10 μM): 0.51 ± 0.021 µM
O[C@@H]1c2ccccc2O[C@]2(O)CCN(Cc3ccccc3)C[C@@H]12 (relative stereo) [8e, (4aR*,10S*,10aS*)-2-Benzyl-1,2,3,4,10,10a-hexahydro-4aH-chromeno[3,2-c]pyridine-4a,10-diol]	12	41	25	–	inhibition at 10 µM (BChE from human serum): 19%
CN1CC[C@@]2(O)Oc3ccccc3[C@@H](O)[C@@H]2C1 (relative stereo) [8a, (4aR*,10S*,10aS*)-2-Methyl-1,2,3,4,10,10a-hexahydro-4aH-chromeno[3,2-c]pyridine-4a,10-diol]	8	42	22	n.i.	–
CCOc1cccc2c(=O)c3c(oc12)C=CN(C(C)C)C3C#Cc1ccccc1 (centres unmarked) [3d, 6-Ethoxy-2-isopropyl-1-(phenylethynyl)-1,2-dihydro-10H-chromeno[3,2-c]pyridin-10-one]	36	22	–	–	hAChE % inhibition at 10 μM (human recombinant AChE): n.i.; inhibition at 10 µM (BChE from human serum): 10%
